Measured values taken from US8163740B2, “6-substituted benzoxazines” (Hoffmann-La Roche Inc., priority 2008, dated 2012).
pKi: −log10 of the molar value. Where two headings read alike, the source gives them in different places.

What was measured:
[1] = target: recombinant human 5-HT5A receptor (Homo sapiens, UniProt P47898); experiment: [3H]LSD radioligand binding assay
Procedure, shortened: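 Membranes from HEK-EBNA cells transiently expressing the receptor, with ~1 nM [3H]LSD in 50 mM Tris, 1 mM EGTA, 10 mM MgCl2, 10 μM pargyline, pH 7.4, SPA bead format. Incubated 120 min RT; nonspecific binding defined with 2 μM methiothepin. 10 concentrations in duplicate; IC50 converted to Ki via Cheng-Prusoff.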

[2] = [3H]LSD (approximately 1 nM), membranes from HEK-EBNA cells transiently expressing 5-HT5A, Ki by Cheng-Prussoff equation, read-out: Ki

recombinant human 5-HT5A receptor, sequence (P47898 whole entry): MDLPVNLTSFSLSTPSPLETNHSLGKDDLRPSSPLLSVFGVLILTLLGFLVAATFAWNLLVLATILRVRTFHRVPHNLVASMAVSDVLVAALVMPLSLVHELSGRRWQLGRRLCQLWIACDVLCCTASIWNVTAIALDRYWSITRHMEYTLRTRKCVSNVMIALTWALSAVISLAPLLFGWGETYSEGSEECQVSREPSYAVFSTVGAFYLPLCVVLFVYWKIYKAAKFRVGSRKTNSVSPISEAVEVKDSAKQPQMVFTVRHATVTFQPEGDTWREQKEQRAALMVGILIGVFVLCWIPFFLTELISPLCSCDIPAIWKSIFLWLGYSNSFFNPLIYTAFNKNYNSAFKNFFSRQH

Row | SMILES | pKi [1, 2] | melting point | pKi [1]
1 | COc1cccc2c1C(NC1=Nc3ccc(Nc4nnc(C)o4)cc3CO1)CO2 (racemic) [Example 107, rac-N^2-(4-Methoxy-2,3-dihydro-benzofuran-3-yl)-N^6-(5-methyl-[1,3,4]oxadiazol-2-yl)-4H-benzo[d][1,3]oxazine-2,6-diamine] | 8.00 | 191 °C | 
2 | COc1cccc2c1C(NC1=Nc3ccc(Nc4nnc(C(F)(F)F)o4)cc3CO1)CO2 (racemic) [Example 145, rac-N^2-(4-Methoxy-2,3-dihydro-benzofuran-3-yl)-N^6-(5-trifluoromethyl-[1,3,4]oxadiazol-2-yl)-4H-benzo[d][1,3]oxazine-2,6-diamine] | 7.40 | 212 °C | 
3 | CC1(C)Cc2cccc(NC3=Nc4ccc(NCc5ncc[nH]5)cc4CO3)c2O1 [Example 131, N^2-(2,2-Dimethyl-2,3-dihydro-benzofuran-7-yl)-N^6-(1H-imidazol-2-ylmethyl)-4H-benzo[d][1,3]oxazine-2,6-diamine] | 7.75 |  | 
4 | c1ccc(CNc2ccc3c(c2)COC(Nc2cccc(C4CC4)c2)=N3)cc1 [Example 136, N^6-Benzyl-N^2-(3-cyclopropyl-phenyl)-4H-benzo[d][1,3]oxazine-2,6-diamine] | 7.21 |  | 
5 | CC(C)N1CCC(NC(=O)Nc2ccc3c(c2)COC(Nc2cccc(C4CC4)c2)=N3)CC1 [Example 137, 1-[2-(3-Cyclopropyl-phenylamino)-4H-benzo[d][1,3]oxazin-6-yl]-3-(1-isopropyl-piperidin-4-yl)-urea] | 8.27 |  | 
6 | CC(C)NC(=O)Nc1ccc2c(c1)COC(Nc1cccc3c1OC(C)(C)C3)=N2 [Example 139, 1-[2-(2,2-Dimethyl-2,3-dihydro-benzofuran-7-ylamino)-4H-benzo[d][1,3]oxazin-6-yl]-isopropyl-urea] | 6.62 |  | 
7 | COCC1CN(CC(=O)Nc2ccc3c(c2)COC(NC2CCc4cccc(OC)c42)=N3)CCN1C (stereo not drawn) [Example 146, N-[2-(7-Methoxy-indan-1-ylamino)-4H-benzo[d][1,3]oxazin-6-yl]-2-(3-methoxymethyl-4-methyl-piperazin-1-yl)-acetamide] | 8.43 |  | 
8 | O=S(=O)(Nc1ccc2c(c1)COC(Nc1cccc(C3CC3)c1)=N2)C1CC1 [Example 149, Cyclopropanesulfonic acid [2-(3-cyclopropyl-phenylamino)-4H-benzo[d][1,3]oxazin-6-yl]-amide] | 6.86 |  | 
9 | O=S(=O)(Nc1ccc2c(c1)COC(Nc1cccc(C3CC3)c1)=N2)c1ccccc1 [Example 150, N-[2-(3-Cyclopropyl-phenylamino)-4H-benzo[d][1,3]oxazin-6-yl]-benzenesulfonamide] | 6.52 |  | 
10 | CC(C)NC(=O)Nc1ccc2c(c1)COC(Nc1cccc(C3CC3)c1)=N2 [Example 151, 1-[2-(3-Cyclopropyl-phenylamino)-4H-benzo[d][1,3]oxazin-6-yl]-3-isopropyl-urea] | 6.94 |  | 
11 | Nc1ccc2c(c1)COC(NC1CCCCCCC1)=N2 [Example 153, N^2-Cyclooctyl-4H-benzo[d][1,3]oxazine-2,6-diamine] | 7.93 |  | 
12 | CC(C)NC(=O)Nc1ccc2c(c1)COC(NC1CCCCCC1)=N2 [Example 154, 1-(2-Cycloheptylamino-4H-benzo[d][1,3]oxazin-6-yl)-3-isopropyl-urea] | 8.73 |  | 
13 | O=C(Nc1ccc2c(c1)COC(NC1CCCCCCC1)=N2)C1CC1 [Example 155, Cyclopropanecarboxylic acid (2-cyclooctylamino-4H-benzo[d][1,3]oxazin-6-yl)-amide] | 8.89 |  | 
14 | CN1CCN(CC(=O)Nc2ccc3c(c2)COC(NC2CCCCCCC2)=N3)CC1 [Example 156, N-(2-Cyclooctylamino-4H-benzo[d][1,3]oxazin-6-yl)-2-(4-methyl-piperazin-1-yl)-acetamide] | 8.67 |  | 
15 | CN1C2COCC1CC(CC(=O)Nc1ccc3c(c1)COC(NC1CCc4ccccc41)=N3)C2 [Example 157, endo-N-[2-((R)-indan-1-ylamino)-4H-benzo[d][1,3]oxazin-6-yl]-2-(9-methyl-3-oxa-9-aza-bicyclo[3.3.1]non-7-yl)-acetamide] |  |  | 8.53
16 | CN1C2COCC1CN(CC(=O)Nc1ccc3c(c1)COC(N[C@@H]1CCc4ccccc41)=N3)C2 [Example 159, N-[2-((R)-Indan-1-ylamino)-4H-benzo[d][1,3]oxazin-6-yl]-2-(9-methyl-3-oxa-7,9-diaza-bicyclo[3.3.1]non-7-yl)-acetamide] |  |  | 7.72

Further lines, with some results ahead:

Row | pKi [1, 2] | melting point | SMILES | pKi [1]
17 | 6.90 | 132.5 °C | COc1cccc2c1C(NC1=Nc3ccc(Br)cc3CO1)CO2 (racemic) [Example 54, rac-(6-Bromo-4H-benzo[d][1,3]oxazin-2-yl)-(4-methoxy-2,3-dihydro-benzofuran-3-yl)-amine] | 
18 | 7.86 | 151 °C | COc1cccc2c1C(NC1=Nc3ccc(Br)cc3CO1)CC2 (racemic) [Example 74, rac-(6-Bromo-4H-benzo[d][1,3]oxazin-2-yl)-(7-methoxy-indan-1-yl)-amine] | 
19 | 8.53 | 121 °C | Cc1nnc(Nc2ccc3c(c2)COC(NC2CCc4cc(F)ccc42)=N3)o1 (racemic) [Example 106, rac-N^2-(5-Fluoro-indan-1-yl)-N^6-(5-methyl-[1,3,4]oxadiazol-2-yl)-4H-benzo[d][1,3]oxazine-2,6-diamine] | 
20 | 8.78 | 204 °C | COc1cccc2c1C(NC1=Nc3ccc(Nc4nnc(C5CC5)o4)cc3CO1)CC2 (racemic) [Example 111, rac-N^6-(5-Cyclopropyl-[1,3,4]oxadiazol-2-yl)-N^2-(7-methoxy-indan-1-yl)-4H-benzo[d][1,3]oxazine-2,6-diamine] | 
21 | 8.07 | 173 °C | COc1cccc2c1C(NC1=Nc3ccc(Nc4nnc(C(F)(F)F)o4)cc3CO1)CC2 (racemic) [Example 144, rac-N^2-(7-Methoxy-indan-1-yl)-N^6-(5-trifluoromethyl-[1,3,4]oxadiazol-2-yl)-4H-benzo[d][1,3]oxazine-2,6-diamine] | 
22 | 7.85 | 142 °C | Fc1ccc2c(c1)CCC2NC1=Nc2ccc(Nc3nnc(C(F)(F)F)o3)cc2CO1 (racemic) [Example 148, rac-N^2-(5-Fluoro-indan-1-yl)-N^6-(5-trifluoromethyl-[1,3,4]oxadiazol-2-yl)-4H-benzo[d][1,3]oxazine-2,6-diamine] | 
23 | 7.60 | 123 °C | Brc1ccc2c(c1)COC(N[C@@H]1CCc3ccccc31)=N2 [Example 32, (6-Bromo-4H-benzo[d][1,3]oxazin-2-yl)-(R)-indan-1-yl-amine] | 
24 | 8.62 | 162 °C | COc1cccc2c1C(NC1=Nc3ccc(Nc4nnc(C)o4)cc3CO1)CC2 (stereo not drawn) [Example 101, N^2-(7-Methoxy-indan-1-yl)-N^6-(5-methyl-[1,3,4]oxadiazol-2-yl)-4H-benzo[d][1,3]oxazine-2,6-diamine] | 
25 | 8.85 | 137 °C | Cc1nnc(Nc2ccc3c(c2)COC(N[C@@H]2CCc4ccccc42)=N3)o1 [Example 118, N^2—(R)-Indan-1-yl-N^6-(5-methyl-[1,3,4]oxadiazol-2-yl)-4H-benzo[d][1,3]oxazine-2,6-diamine] | 
26 | 7.93 | 206 °C | N=C(NO)c1ccc2c(c1)COC(N[C@@H]1CCc3ccccc31)=N2 [Example 130, N-Hydroxy-2-((R)-indan-1-ylamino)-4H-benzo[d][1,3]oxazine-6-carboxamidine] | 
27 | 7.32 |  | O=C(NCc1ccc2c(c1)COC(N[C@@H]1CCc3ccccc31)=N2)c1ccc(F)cc1 [Example 132, 4-Fluoro-N-[2-((R)-indan-1-ylamino)-4H-benzo[d][1,3]oxazin-6-ylmethyl]-benzamide] | 
28 | 7.12 | 138 °C | Cc1nc(-c2ccc3c(c2)COC(N[C@@H]2CCc4ccccc42)=N3)no1 [Example 133, (R)-Indan-1-yl-[6-(5-methyl-[1,2,4]oxadiazol-3-yl)-4H-benzo[d][1,3]oxazin-2-yl]-amine] | 
29 | 7.87 |  | C=Cc1ccc2c(c1)COC(N[C@@H]1CCc3ccccc31)=N2 [Example 134, (R)-Indan-1-yl-(6-vinyl-4H-benzo[d][1,3]oxazin-2-yl)-amine] | 
30 | 7.14 |  | CN(C)S(=O)(=O)Nc1ccc2c(c1)COC(Nc1cccc(C3CC3)c1)=N2 [Example 135, N′-{2-[(3-cyclopropylphenyl)amino]-4H-benzo[d][1,3]oxazin-6-yl}-N,N-dimethylsulfamide] | 
31 | 8.06 | 155 °C | FC(F)(F)c1nnc(Nc2ccc3c(c2)COC(N[C@@H]2CCc4ccccc42)=N3)o1 [Example 138, N^2—(R)-Indan-1-yl-N^6-(5-trifluoromethyl-[1,3,4]oxadiazol-2-yl)-4H-benzo[d][1,3]oxazine-2,6-diamine] | 
32 | 7.75 | 162 °C | C(=C\c1ccc2c(c1)COC(N[C@@H]1CCc3ccccc31)=N2)/c1ccccc1 [Example 140, (R)-Indan-1-yl-[6-((E)-styryl)-4H-benzo[d][1,3]oxazin-2-yl]-amine] | 
33 | 8.12 | 132 °C | C(=C\c1ccc2c(c1)COC(N[C@@H]1CCc3ccccc31)=N2)/c1cccnc1 [Example 143, (R)-Indan-1-yl-[6-((E)-2-pyridin-3-yl-vinyl)-4H-benzo[d][1,3]oxazin-2-yl]-amine] | 
34 | 8.45 |  | COCC1CN(CC(=O)Nc2ccc3c(c2)COC(N[C@@H]2CCc4ccccc42)=N3)CCN1C (stereo partly drawn) [Example 147, N-[2-((R)-Indan-1-ylamino)-4H-benzo[d][1,3]oxazin-6-yl]-2-(3-methoxymethyl-4-methyl-piperazin-1-yl)-acetamide] | 
35 | 7.56 |  | c1ccc2c(c1)CC[C@H]2NC1=Nc2ccc(C3CC3)cc2CO1 [Example 152, (6-Cyclopropyl-4H-benzo[d][1,3]oxazin-2-yl)-(R)-indan-1-yl-amine] | 
